# Test results published in the supplement of paper PMC10307832.
# Tests used:
# Assay in all cases: relative viability (nuclei count vs DMSO), 5 days (fraction); higher = more cells survive
# HCC-78 = test system: HCC-78
# How it was run: (§1)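 Relative viability is defined as nuclei in treated wells over nuclei in vehicle wells. Duplicate plates were run and medians reported. Lung cancer cell lines in 1536-well plates were dosed by pin tool one day after seeding, with one drug or with a fixed anchor-drug dose plus five library-drug doses (not always all listed) in √10 steps, and nuclei were counted after 5 days.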
# NCI-H1975 = test system: NCI-H1975
# How it was run: as §1
# NCI-H2126 = test system: NCI-H2126
# How it was run: as §1
# EMC-BAC-2 = test system: EMC-BAC-2
# How it was run: as §1
# NCI-H1944 = test system: NCI-H1944
# How it was run: as §1
# HCC-366 = test system: HCC-366
# How it was run: as §1
# HCC-44 = test system: HCC-44
# How it was run: as §1
# NCI-H838 = test system: NCI-H838
# How it was run: as §1
# NCI-H1355 = test system: NCI-H1355
# How it was run: as §1
# NCI-H2087 = test system: NCI-H2087
# How it was run: as §1
# NCI-H2347 = test system: NCI-H2347
# How it was run: as §1
# NCI-H2009 = test system: NCI-H2009
# How it was run: as §1
# NCI-H1734 = test system: NCI-H1734
# How it was run: as §1
# NCI-H522 = test system: NCI-H522
# How it was run: as §1
# NCI-H727 = test system: NCI-H727
# How it was run: as §1
# HOP-62 = test system: HOP-62
# How it was run: as §1
# PC-3 [JPC-3] = test system: PC-3 [JPC-3]
# How it was run: as §1
# ChaGo-K-1 = test system: ChaGo-K-1
# How it was run: as §1
# SW 1573 = test system: SW 1573
# How it was run: as §1
# LC-2-ad = test system: LC-2-ad
# How it was run: as §1
# NCI-H441 = test system: NCI-H441
# How it was run: as §1
# UMC-11 = test system: UMC-11
# How it was run: as §1
# SK-LU-1 = test system: SK-LU-1
# How it was run: as §1
smiles,measurement,setting,value
C=C1C(=O)O[C@@H](CCCCCCCC)[C@@H]1C(=O)O [C-75] + O=C(CCCCCCC(=O)Nc1ccccc1)NO [Vorinostat] (partner 1 µM),relative viability,HCC-78; first compound 0.08 µM,0.372
same,relative viability,HCC-78; first compound 0.253 µM,0.668
same,relative viability,HCC-78; first compound 0.8 µM,0.373
same,relative viability,HCC-78; first compound 8 µM,0.372
same,relative viability,NCI-H1975; first compound 0.08 µM,0.757
same,relative viability,NCI-H1975; first compound 0.253 µM,0.733
same,relative viability,NCI-H1975; first compound 0.8 µM,0.761
same,relative viability,NCI-H1975; first compound 2.53 µM,0.718
same,relative viability,NCI-H1975; first compound 8 µM,0.742
same,relative viability,NCI-H2126; first compound 0.08 µM,0.721
same,relative viability,NCI-H2126; first compound 0.253 µM,0.92
same,relative viability,NCI-H2126; first compound 0.8 µM,0.792
same,relative viability,NCI-H2126; first compound 2.53 µM,0.642
same,relative viability,NCI-H2126; first compound 8 µM,0.744
same,relative viability,EMC-BAC-2; first compound 0.08 µM,0.462
same,relative viability,EMC-BAC-2; first compound 0.253 µM,0.407
same,relative viability,EMC-BAC-2; first compound 0.8 µM,0.276
same,relative viability,EMC-BAC-2; first compound 2.53 µM,0.355
same,relative viability,EMC-BAC-2; first compound 8 µM,0.378
same,relative viability,NCI-H1944; first compound 0.08 µM,0.571
same,relative viability,NCI-H1944; first compound 0.253 µM,0.591
same,relative viability,NCI-H1944; first compound 0.8 µM,0.475
same,relative viability,NCI-H1944; first compound 2.53 µM,0.42
same,relative viability,NCI-H1944; first compound 8 µM,0.483
same,relative viability,HCC-366; first compound 0.08 µM,0.409
same,relative viability,HCC-366; first compound 0.253 µM,0.399
same,relative viability,HCC-366; first compound 0.8 µM,0.256
same,relative viability,HCC-366; first compound 2.53 µM,0.269
same,relative viability,HCC-366; first compound 8 µM,0.301
same,relative viability,HCC-44; first compound 0.08 µM,1.1
same,relative viability,HCC-44; first compound 0.253 µM,0.994
same,relative viability,HCC-44; first compound 0.8 µM,1.07
same,relative viability,HCC-44; first compound 2.53 µM,1.13
same,relative viability,HCC-44; first compound 8 µM,1.07
same,relative viability,NCI-H838; first compound 0.08 µM,0.761
same,relative viability,NCI-H838; first compound 0.253 µM,0.669
same,relative viability,NCI-H838; first compound 0.8 µM,0.726
same,relative viability,NCI-H838; first compound 2.53 µM,0.648
same,relative viability,NCI-H838; first compound 8 µM,0.663
same,relative viability,NCI-H1355; first compound 0.08 µM,0.643
same,relative viability,NCI-H1355; first compound 0.253 µM,0.696
same,relative viability,NCI-H1355; first compound 0.8 µM,0.67
same,relative viability,NCI-H1355; first compound 2.53 µM,0.52
same,relative viability,NCI-H1355; first compound 8 µM,0.639
same,relative viability,NCI-H2087; first compound 0.08 µM,0.683
same,relative viability,NCI-H2087; first compound 0.253 µM,0.586
same,relative viability,NCI-H2087; first compound 0.8 µM,0.666
same,relative viability,NCI-H2087; first compound 2.53 µM,0.635
same,relative viability,NCI-H2087; first compound 8 µM,0.541
same,relative viability,NCI-H2347; first compound 0.08 µM,0.567
same,relative viability,NCI-H2347; first compound 0.253 µM,0.842
same,relative viability,NCI-H2347; first compound 0.8 µM,0.614
same,relative viability,NCI-H2347; first compound 2.53 µM,0.535
same,relative viability,NCI-H2347; first compound 8 µM,0.615
same,relative viability,NCI-H2009; first compound 0.08 µM,0.764
same,relative viability,NCI-H2009; first compound 0.253 µM,0.668
same,relative viability,NCI-H2009; first compound 0.8 µM,0.469
same,relative viability,NCI-H2009; first compound 2.53 µM,0.783
same,relative viability,NCI-H2009; first compound 8 µM,0.715
same,relative viability,NCI-H1734; first compound 0.08 µM,0.834
same,relative viability,NCI-H1734; first compound 0.253 µM,0.877
same,relative viability,NCI-H1734; first compound 0.8 µM,0.766
same,relative viability,NCI-H1734; first compound 2.53 µM,0.538
same,relative viability,NCI-H1734; first compound 8 µM,0.693
same,relative viability,NCI-H522; first compound 0.08 µM,0.912
same,relative viability,NCI-H522; first compound 0.253 µM,0.811
same,relative viability,NCI-H522; first compound 0.8 µM,0.905
same,relative viability,NCI-H522; first compound 2.53 µM,0.655
same,relative viability,NCI-H522; first compound 8 µM,0.868
same,relative viability,NCI-H727; first compound 0.08 µM,1.22
same,relative viability,NCI-H727; first compound 0.253 µM,1.31
same,relative viability,NCI-H727; first compound 0.8 µM,0.973
same,relative viability,NCI-H727; first compound 2.53 µM,1.18
same,relative viability,NCI-H727; first compound 8 µM,1.23
same,relative viability,HOP-62; first compound 0.08 µM,0.563
same,relative viability,HOP-62; first compound 0.253 µM,0.834
same,relative viability,HOP-62; first compound 0.8 µM,0.629
same,relative viability,HOP-62; first compound 2.53 µM,0.478
same,relative viability,HOP-62; first compound 8 µM,0.449
same,relative viability,PC-3 [JPC-3]; first compound 0.08 µM,0.837
same,relative viability,PC-3 [JPC-3]; first compound 0.253 µM,0.819
same,relative viability,PC-3 [JPC-3]; first compound 0.8 µM,0.415
same,relative viability,PC-3 [JPC-3]; first compound 2.53 µM,0.583
same,relative viability,PC-3 [JPC-3]; first compound 8 µM,0.764
same,relative viability,ChaGo-K-1; first compound 0.08 µM,0.759
same,relative viability,ChaGo-K-1; first compound 0.253 µM,0.772
same,relative viability,ChaGo-K-1; first compound 0.8 µM,0.701
same,relative viability,ChaGo-K-1; first compound 2.53 µM,0.609
same,relative viability,ChaGo-K-1; first compound 8 µM,0.668
same,relative viability,SW 1573; first compound 0.08 µM,0.976
same,relative viability,SW 1573; first compound 0.253 µM,0.816
same,relative viability,SW 1573; first compound 0.8 µM,0.701
same,relative viability,SW 1573; first compound 2.53 µM,0.442
same,relative viability,SW 1573; first compound 8 µM,0.517
same,relative viability,LC-2-ad; first compound 0.08 µM,0.72
same,relative viability,LC-2-ad; first compound 0.253 µM,0.717
same,relative viability,LC-2-ad; first compound 0.8 µM,0.681
same,relative viability,LC-2-ad; first compound 2.53 µM,0.689
same,relative viability,LC-2-ad; first compound 8 µM,0.666
same,relative viability,NCI-H441; first compound 0.08 µM,0.82
same,relative viability,NCI-H441; first compound 0.253 µM,0.885
same,relative viability,NCI-H441; first compound 0.8 µM,0.764
same,relative viability,NCI-H441; first compound 8 µM,0.568
same,relative viability,UMC-11; first compound 0.08 µM,0.38
same,relative viability,UMC-11; first compound 0.253 µM,0.497
same,relative viability,UMC-11; first compound 0.8 µM,0.343
same,relative viability,UMC-11; first compound 2.53 µM,0.257
same,relative viability,UMC-11; first compound 8 µM,0.294
same,relative viability,SK-LU-1; first compound 0.08 µM,0.782
same,relative viability,SK-LU-1; first compound 0.253 µM,0.724
same,relative viability,SK-LU-1; first compound 0.8 µM,0.698
same,relative viability,SK-LU-1; first compound 2.53 µM,0.752
same,relative viability,SK-LU-1; first compound 8 µM,0.59
